Here are results for five compounds from ChEMBL document CHEMBL4184331 (J Med Chem, 2018).

Series [1] is described as follows: Cmax in Sprague-Dawley rat plasma at 1 umol/kg, it by HPLC-MS/MS method. Type of series: ADME, cell-free. The arrangement: dose 1 umol/kg. The settings on record: inhaled or intranasal.
Series [2] is described as follows: Cmax in Sprague-Dawley rat lung at 1 umol/kg, it by HPLC-MS/MS method. Type of series: ADME, tissue-based. The arrangement: dose 1 umol/kg. The note with it: in vivo, inhaled_or_intranasal.
Series [3] can be described thus: AUClast in Sprague-Dawley rat plasma at 1 umol/kg, it by HPLC-MS/MS method. Type of series: ADME, cell-free. The note with it: inhaled or intranasal.
Series [4] in a line: AUClast in Sprague-Dawley rat lung at 1 umol/kg, it by HPLC-MS/MS method. The note with it: in vivo, inhaled_or_intranasal. Type of series: ADME, tissue-based.
Series [5] in a line: MRTlast in Sprague-Dawley rat plasma at 1 umol/kg, it by HPLC-MS/MS method. Type of series: ADME, cell-free. The settings on record: inhaled or intranasal.
The nature of series [6]: MRTlast in Sprague-Dawley rat lung at 1 umol/kg, it by HPLC-MS/MS method. Type of series: ADME, tissue-based. The note with it: inhaled or intranasal.
Series [7] is filed under the species Rattus norvegicus. Nature of the series: Antiinflammatory activity in LPS-induced Sprague-Dawley rat neutrophilic lung inflammation model assessed as inhibition of neutrophilic infiltration in bronchoalveolar lavage at ID80, it preincubated for 24 hrs followed by LPS challenge measured after 4 hrs relative to control. Type of series: functional.
The test system of series [8] is RAW264.7. Kind of series: cells. The note with it: Mus musculus.
Description: Antiinflammatory activity in mouse RAW264.7 cells assessed as inhibition of LPS-induced nitric oxide release preincubated for 15 mins followed by LPS challenge measured after 18 hrs by Griess assay
Series [9] deals with Rattus norvegicus. Kind of series: Antiinflammatory activity in it dosed LPS-induced Sprague-Dawley rat neutrophilic lung inflammation model assessed as inhibition of neutrophilic infiltration in bronchoalveolar lavage preincubated for 1 hr followed by LPS challenge measured after 4 hrs. Type of series: functional. The settings on record: read-out: ID50 (the source's name).

Series [10] has as its system Rattus norvegicus. Kind of series: Antiinflammatory activity in LPS-induced Sprague-Dawley rat neutrophilic lung inflammation model assessed as inhibition of neutrophilic infiltration in bronchoalveolar lavage at 0.03 mg/kg, it preincubated for 1 hr followed by LPS challenge measured after 4 hrs relative to control. Type of series: functional.
The subject of series [11] is Rattus norvegicus. Kind of series: Antiinflammatory activity in LPS-induced Sprague-Dawley rat neutrophilic lung inflammation model assessed as inhibition of neutrophilic infiltration in bronchoalveolar lavage at 0.1 mg/kg, it preincubated for 1 hr followed by LPS challenge measured after 4 hrs relative to control. Type of series: functional.
Series [12] has as its system Rattus norvegicus. Nature of the series: Antiinflammatory activity in LPS-induced Sprague-Dawley rat neutrophilic lung inflammation model assessed as inhibition of neutrophilic infiltration in bronchoalveolar lavage at 0.3 mg/kg, it preincubated for 1 hr followed by LPS challenge measured after 4 hrs relative to control. Type of series: functional.
Series [13] has as its system Rattus norvegicus. Kind of series: Antiinflammatory activity in LPS-induced Sprague-Dawley rat neutrophilic lung inflammation model assessed as inhibition of neutrophilic infiltration in bronchoalveolar lavage at 1 mg/kg, it preincubated for 1 hr followed by LPS challenge measured after 4 hrs relative to control. Type of series: functional.
The target in series [14] is T1, Glucocorticoid receptor (Homo sapiens, UniProt P04150).
T1 sequence (P04150 whole entry): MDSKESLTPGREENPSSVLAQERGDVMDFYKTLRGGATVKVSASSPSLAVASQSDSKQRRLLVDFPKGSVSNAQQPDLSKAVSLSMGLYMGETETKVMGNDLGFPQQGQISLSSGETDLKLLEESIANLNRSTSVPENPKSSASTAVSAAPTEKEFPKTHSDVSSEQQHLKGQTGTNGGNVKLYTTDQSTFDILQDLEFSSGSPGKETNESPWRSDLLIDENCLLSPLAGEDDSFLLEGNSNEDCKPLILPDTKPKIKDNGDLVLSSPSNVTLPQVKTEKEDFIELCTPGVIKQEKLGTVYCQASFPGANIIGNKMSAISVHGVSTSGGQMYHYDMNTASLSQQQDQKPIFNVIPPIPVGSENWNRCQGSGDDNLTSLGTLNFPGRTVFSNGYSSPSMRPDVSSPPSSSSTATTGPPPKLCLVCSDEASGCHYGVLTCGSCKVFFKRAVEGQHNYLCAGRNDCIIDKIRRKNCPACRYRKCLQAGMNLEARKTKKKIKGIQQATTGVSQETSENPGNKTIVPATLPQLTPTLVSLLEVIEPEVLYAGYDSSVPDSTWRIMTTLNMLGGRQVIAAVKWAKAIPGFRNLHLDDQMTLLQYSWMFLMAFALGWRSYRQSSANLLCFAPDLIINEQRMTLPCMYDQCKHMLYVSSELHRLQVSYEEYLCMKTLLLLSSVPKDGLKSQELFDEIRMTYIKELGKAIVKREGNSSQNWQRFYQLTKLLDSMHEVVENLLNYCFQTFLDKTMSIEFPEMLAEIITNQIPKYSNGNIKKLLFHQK
Description: Induction of nuclear translocation of human recombinant ProLabel-tagged glucocorticoid receptor expressed in CHO-K1 cells after 3 hrs by luminescence method

The target of series [15] is T2, Mineralocorticoid receptor (Homo sapiens, UniProt P08235).
T2 sequence (P08235 whole entry): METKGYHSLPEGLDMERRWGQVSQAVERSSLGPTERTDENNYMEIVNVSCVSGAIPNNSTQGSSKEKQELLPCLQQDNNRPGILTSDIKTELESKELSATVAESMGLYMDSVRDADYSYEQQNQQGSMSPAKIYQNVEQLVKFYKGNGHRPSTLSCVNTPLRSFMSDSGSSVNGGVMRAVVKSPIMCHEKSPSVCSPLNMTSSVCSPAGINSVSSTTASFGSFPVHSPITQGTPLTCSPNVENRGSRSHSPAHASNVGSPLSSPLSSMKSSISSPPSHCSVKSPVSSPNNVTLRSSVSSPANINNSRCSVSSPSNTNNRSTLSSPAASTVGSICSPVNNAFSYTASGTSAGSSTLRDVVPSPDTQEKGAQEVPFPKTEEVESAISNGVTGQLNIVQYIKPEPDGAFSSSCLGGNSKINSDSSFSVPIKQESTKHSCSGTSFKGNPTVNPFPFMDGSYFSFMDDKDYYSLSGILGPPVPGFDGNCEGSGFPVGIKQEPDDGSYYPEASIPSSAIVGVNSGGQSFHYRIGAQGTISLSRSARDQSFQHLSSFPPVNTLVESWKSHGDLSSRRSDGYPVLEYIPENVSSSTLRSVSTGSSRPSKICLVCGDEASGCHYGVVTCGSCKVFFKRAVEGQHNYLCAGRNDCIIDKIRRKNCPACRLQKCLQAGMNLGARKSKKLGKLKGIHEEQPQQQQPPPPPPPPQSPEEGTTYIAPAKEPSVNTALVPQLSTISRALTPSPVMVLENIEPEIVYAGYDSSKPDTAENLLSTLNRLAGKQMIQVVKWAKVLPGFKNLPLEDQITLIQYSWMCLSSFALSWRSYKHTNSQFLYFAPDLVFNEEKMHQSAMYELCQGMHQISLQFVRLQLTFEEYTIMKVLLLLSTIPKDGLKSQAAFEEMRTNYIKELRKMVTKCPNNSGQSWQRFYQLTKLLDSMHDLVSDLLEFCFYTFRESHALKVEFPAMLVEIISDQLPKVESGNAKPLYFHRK
Description: Induction of nuclear translocation of human recombinant ProLabel-tagged mineralocorticoid receptor expressed in CHO-K1 cells after 3 hrs by luminescence method

Series [16] is described as follows: physchem.
Description: Dissociation constant, pKa of the compound
Series [17] deals with T1, Glucocorticoid receptor. Kind of series: biochemical.
Description: Displacement of [3H]dexamethasone from human recombinant glucocorticoid receptor expressed in insect cells after 24 hrs by scintillation proximity assay
For series [18], the system named is Rattus norvegicus. Kind of series: Antiinflammatory activity in LPS-induced Sprague-Dawley rat neutrophilic lung inflammation model assessed as inhibition of neutrophilic infiltration in bronchoalveolar lavage at 3 mg/kg, it preincubated for 1 hr followed by LPS challenge measured after 4 hrs relative to control. Type of series: functional.
Series [19] has as its target T3, Glucocorticoid receptor (Homo sapiens) (UniProt P04150).
T3 sequence (whole entry): T1 sequence (P04150 whole entry)
Kind of series: Displacement of [3H]dexamethasone from human recombinant glucocorticoid receptor expressed in insect cells at 1000 nM after 24 hrs by scintillation proximity assay relative to control. In general terms: Displacement assays read how much labelled ligand stays bound in the presence of the test substance.

Calls of active or inactive are those of the source. The calls are words filed in the database; no cut-off is given here. Bounds are passed on as bounds.

For the compound `C[C@@H]1C[C@H]2[C@@H]3C[C@H](F)C4=CC(=O)C=C[C@]4(C)[C@@]3(F)[C@@H](O)C[C@]2(C)[C@@]1(OC(=O)c1ccco1)C(=O)SCF` [FLUTICASONE FUROATE], the Cmax in series [1] came to 45 nM; in series [2], 77.1 nmol/g. Moreover, the AUC(0-t) in series [3] was 0.05 µM·h. This compound also showed an AUClast in series [4] of 1049 nmol·h/g. Further, the MRT last in series [5] was 1.4 h; in series [6] it was 9.5 h. The “inhibition (INH)” value in series [7] is >80%. The same compound showed an IC50 in [8] of 0.1 nM.
Take `C[C@]12C=CC(=O)C=C1[C@@H](F)C[C@H]1[C@@H]3C[C@H]4CN(Cc5cccc(Cl)c5)C[C@@]4(C(=O)CO)[C@@]3(C)C[C@H](O)[C@@]12F`: the Cmax in series [1] was 110 nM; in series [2], 64.26 nmol/g. Besides, in series [3], the AUC(0-t) was 0.118 µM·h. In series [4], the AUClast stood at 871.2 nmol·h/g. In addition, the results for the MRT last in series [5] and in series [6] were 1.4 h and 16.7 h, respectively. Besides, in series [9], the ED50 came to 0.097 µmol/kg. For the same compound, the inhibition in vivo at 0.03 mg/kg in [10] was determined as 47%. Further, the inhibition in vivo at 0.1 mg/kg in series [11] is 56%. The inhibition in vivo at 0.3 mg/kg in [12] was 64%. For the same compound, the inhibition in vivo at 1 mg/kg in series [13] came out at 92%. Also, the “inhibition (INH)” value in series [7] is listed as >80%. Further, the EC50 turned out to be 1.8 nM in series [14] and 2.5 nM in series [15]. The compound further had an IC50 in [8] of 0.08 nM. In addition, in series [16], the pKa is 6.64. The compound further yielded a Ki in series [17] of 0.76 nM.
For `CCCC1O[C@@H]2C[C@H]3[C@@H]4CCC5=CC(=O)C=C[C@]5(C)[C@H]4[C@@H](O)C[C@]3(C)[C@]2(C(=O)CO)O1` (stereo partly specified) [BUDESONIDE], the figures for the Cmax in series [1] and in series [2] were 127 nM and 18.67 nmol/g, respectively. In addition, the AUC(0-t) in [3] is 11.6 µM·h. In series [4], the AUClast was found to be 110.03 nmol·h/g. In addition, the values for the MRT last in [5] and in [6] were 1.2 h and 0.71 h, respectively. Moreover, the ED50 in series [9] is 0.34 µmol/kg. Moreover, in [18], the inhibition in vivo at 3 mg/kg stood at 84%. The inhibition in vivo at 0.1 mg/kg in series [11] amounted to 29%. In addition, the inhibition in vivo at 0.3 mg/kg in series [12] is 45%. Also, the inhibition in vivo at 1 mg/kg in [13] is 73%. Also, the inhibition result in [7] was “inactive”. This compound also had an IC50 in series [8] of 0.82 nM.
`C[C@]12C=CC(=O)C=C1[C@@H](F)C[C@H]1[C@@H]3C[C@H]4CN(Cc5cccc(Cl)c5)C[C@@]4(C(=O)CO)[C@@]3(C)C[C@H](O)[C@@]12F.Cl`: the Cmax in series [1] worked out at 90 nM; in [2], 9.03 nmol/g. This compound also came in with an AUC(0-t) in series [3] of 0.12 µM·h. This compound also came in with an AUClast in series [4] of 9 nmol·h/g. Further, the MRT last in series [5] stood at 1.1 h; in series [6], 6.4 h.
For the compound `C[C@]12C=CC(=O)C=C1[C@@H](F)C[C@H]1[C@@H]3C[C@H]4CNC[C@@]4(C(=O)CO)[C@@]3(C)C[C@H](O)[C@@]12F`, in series [19], the inhibition is 40%. In [16], this compound registered a pKa of 8.82.

As a reminder, the AUC(0-t) is exposure summed from dosing to a finite time, without extrapolation to infinity. Usually MRT last stands for the average time that molecules of a dose stay in the body. What is called IC50 is the concentration needed to halve the response being measured. One may read the inhibition in vivo as the change of the read-out against control, counted positive when it falls. The EC50 is the concentration giving half of the maximal effect. Higher therefore signals weaker potency. What is called pKa is the negative logarithm of the acid dissociation constant. Higher therefore signals a weaker acid or stronger base. As a reminder, the Ki is a dissociation constant, usually derived from enzyme kinetics or from competition with a known ligand. As usually defined, the inhibition is the percentage by which the read-out fell short of the control.
